In the assay the test system is AK4 lymphoid leukemia ip, C3AKF1 mice, survival. Description: NCI In Vivo Anticancer Drug Screen. Data for tumor model AK4 Lymphoid Leukemia (intraperitoneal) in C3AKF1 (CHKRF1) mice. As to conditions: endpoint: median survival time, higher = longer survival. Here is the method: The antitumor activity of compounds was measured in mice bearing transplantable tumors. Survival or tumor size were measured and the results are expressed as the measurement made in the treated group (T) divided by the measurement made in the vehicle treated control group (C). The tumor model used in this assay is AK4 Lymphoid Leukemia (intraperitoneal) in C3AKF1 (CHKRF1) mice

Where [1] appears, read: dose: 16.0 mg/kg/injection, schedule: Q01DX010 (ip), vehicle: saline.
[2] abbreviates: dose: 32.0 mg/kg/injection, schedule: Q01DX010 (ip), vehicle: saline.
[3] abbreviates: dose: 64.0 mg/kg/injection, schedule: Q01DX010 (ip), vehicle: saline.
[4] abbreviates: dose: 125.0 mg/kg/injection, schedule: Q01DX010 (ip), vehicle: saline.
[5] abbreviates: dose: 250.0 mg/kg/injection, schedule: Q01DX010 (ip), vehicle: saline.
[6] abbreviates: dose: 1000.0 mg/kg/injection, schedule: Q01DX010 (ip), vehicle: saline.
The mark [7] stands for this setting: dose: 2.0 mg/kg/injection, schedule: Q01DX010 (ip), vehicle: saline.
The mark [8] stands for this setting: dose: 4.0 mg/kg/injection, schedule: Q01DX010 (ip), vehicle: saline.
Where [9] appears, read: dose: 0.5 mg/kg/injection, schedule: Q01DX010 (ip), vehicle: saline.
The mark [10] stands for this setting: dose: 1.0 mg/kg/injection, schedule: Q01DX010 (ip), vehicle: saline.
Setting [11] is: dose: 125.0 micrograms/kg/injection, schedule: Q01DX010 (ip), vehicle: saline.
[12] abbreviates: dose: 250.0 micrograms/kg/injection, schedule: Q01DX010 (ip), vehicle: saline.
[13] abbreviates: dose: 500.0 micrograms/kg/injection, schedule: Q01DX010 (ip), vehicle: saline.
The mark [14] stands for this setting: dose: 62.5 micrograms/kg/injection, schedule: Q01DX010 (ip), vehicle: saline.
Where [15] appears, read: dose: 12.5 mg/kg/injection, schedule: Q01DX010 (ip), vehicle: saline.
[16] abbreviates: dose: 25.0 mg/kg/injection, schedule: Q01DX010 (ip), vehicle: saline.
[17] abbreviates: dose: 100.0 mg/kg/injection, schedule: Q01DX010 (ip), vehicle: saline.
Where [18] appears, read: dose: 12.0 mg/kg/injection, schedule: Q01DX010 (ip), vehicle: saline.
The mark [19] stands for this setting: dose: 50.0 mg/kg/injection, schedule: Q01DX010 (ip), vehicle: saline.
[20] abbreviates: dose: 200.0 mg/kg/injection, schedule: Q01DX010 (ip), vehicle: saline.
The mark [21] stands for this setting: dose: 10.0 mg/kg/injection, schedule: Q01DX010 (ip), vehicle: saline.
Setting [22] is: dose: 1.25 mg/kg/injection, schedule: Q01DX010 (ip), vehicle: saline.
Where [23] appears, read: dose: 2.5 mg/kg/injection, schedule: Q01DX010 (ip), vehicle: saline.
Where [24] appears, read: dose: 20.0 mg/kg/injection, schedule: Q01DX010 (ip), vehicle: saline.
Where [25] appears, read: dose: 5.0 mg/kg/injection, schedule: Q01DX010 (ip), vehicle: saline.

Molecules are shown by their SMILES. Where “and” joins values, the source holds several entries; their conditions need not be identical. Equal values may be shown once. Inconclusive results and toxic doses are left out.

Take `O=C(Nc1ccc(C2=NCCN2)cc1)c1cccc(C(=O)Nc2ccc(C3=NCCN3)cc2)c1`: the T/C by setting is: (dose: 8.0 mg/kg/injection, schedule: Q01DX010 (ip), vehicle: saline) 115 % of control; under setting [1], 150 % of control and 165 % of control; under setting [2], 205 % of control and 210 % of control; under setting [3], 235 % of control and 245 % of control.
With `CCCCn1cnc2c(=S)nc[nH]c21`, the T/C runs as follows: under setting [1], 100 % of control; under setting [2], 90 % of control and 122 % of control; under setting [3], 90 % of control and 111 % of control; (dose: 128.0 mg/kg/injection, schedule: Q01DX010 (ip), vehicle: saline) 94 % of control and 100 % of control.
As for `CCOC(N)=O`, the T/C by setting is: under setting [4], 100 % of control and 121 % of control; under setting [5], 100 % of control and 106 % of control; under setting [6], 87 % of control.
Consider `NC(Cc1c[nH]c2ccc(N(CCCl)CCCl)cc12)C(=O)O` (stereo not drawn), for which the T/C was 156 % of control under setting [7] and 175 % of control under setting [8].
For `Nc1nc2n[nH]nc2c(=O)[nH]1`, the T/C runs as follows: (dose: 25.0 mg/kg/injection, schedule: Q01DX010 (ip), vehicle: alkali diluted with saline) 100 % of control and 115 % of control; (dose: 50.0 mg/kg/injection, schedule: Q01DX010 (ip), vehicle: alkali diluted with saline) 105 % of control and 120 % of control; (dose: 100.0 mg/kg/injection, schedule: Q01DX010 (ip), vehicle: alkali diluted with saline) 100 % of control and 110 % of control; (dose: 200.0 mg/kg/injection, schedule: Q01DX010 (ip), vehicle: alkali diluted with saline) 100 % of control and 110 % of control.
For `CC(=O)NC1=C(N2CC2)C(=O)C(NC(C)=O)=C(N2CC2)C1=O`, the T/C reads like this: under setting [9], 152 % of control; under setting [10], 152 % of control; under setting [7], 88 % of control; under setting [11], 100 % of control; under setting [12], 111 % of control; under setting [13], 116 % of control.
With `CS(=O)(=O)OCCN(CCOS(C)(=O)=O)c1ccc(N=O)cc1`, the T/C is 111 % of control under setting [9]; 111 % of control under setting [10]; 94 % of control under setting [7]; 88 % of control under setting [8]; 110 % of control under setting [14]; 115 % of control under setting [11]. Moreover, the T/C was 115 % of control under setting [12] and 115 % of control under setting [13].
Regarding `CS(=O)(=O)OCCC(=O)N1CCN(C(=O)CCOS(C)(=O)=O)CC1`, the T/C under setting [15] is 94 % of control and 116 % of control; the T/C under setting [16] is 116 % of control; the T/C under setting [17] is 122 % of control.
For the molecule `N=C(N)c1ccc(Nc2ccc(C(=N)N)cc2)cc1`, the T/C was 88 % of control (dose: 1.5 mg/kg/injection, schedule: Q01DX010 (ip), vehicle: saline); 88 % of control and 122 % of control (dose: 3.0 mg/kg/injection, schedule: Q01DX010 (ip), vehicle: saline); 94 % of control and 105 % of control (dose: 6.0 mg/kg/injection, schedule: Q01DX010 (ip), vehicle: saline); 94 % of control and 111 % of control under setting [18].
Turning to `C#CCN(C)Cc1ccccc1`, the T/C under setting [19] is 88 % of control, the T/C under setting [17] is 88 % of control and the T/C under setting [20] was 88 % of control.
Consider `Oc1cc(CN(CCCl)CCCl)c(O)cc1CN(CCCl)CCCl`, for which the T/C under setting [21] was 100 % of control.
As for `O=C(O)c1[nH]c(=O)[nH]c(=O)c1F`, the T/C under setting [22] is 105 % of control; the T/C under setting [23] was 122 % of control; the T/C under setting [21] is 155 % of control and 205 % of control; the T/C under setting [24] was 111 % of control.
On to `CCN(CC)C(=S)S`, for which the T/C under setting [4] is 87 % of control; the T/C under setting [5] is 87 % of control; the T/C (dose: 500.0 mg/kg/injection, schedule: Q01DX010 (ip), vehicle: saline) is 87 % of control; the T/C under setting [6] was 93 % of control.
Turning to `Nc1ncnc2c1ccn2C1OC(CO)C(O)C1O` (stereo not drawn), the T/C reads like this: (dose: 156.0 micrograms/kg/injection, schedule: Q01DX010 (ip), vehicle: saline) 106 % of control; (dose: 313.0 micrograms/kg/injection, schedule: Q01DX010 (ip), vehicle: saline) 112 % of control; (dose: 625.0 micrograms/kg/injection, schedule: Q01DX010 (ip), vehicle: saline) 112 % of control; (dose: 1250.0 micrograms/kg/injection, schedule: Q01DX010 (ip), vehicle: saline) 112 % of control.
`O[C@H](CN1CC1)[C@@H](O)CN1CC1`: the T/C was 164 % of control under setting [12] and 105 % of control (dose: 1000.0 micrograms/kg/injection, schedule: Q01DX010 (ip), vehicle: saline).
`N#[N+]c1cnc([O-])[nH]c1=O`: the T/C was 100 % of control under setting [22], 100 % of control under setting [23], 100 % of control under setting [25] and 100 % of control under setting [21].
As for `N#CCSc1ncnc2nc[nH]c12`, the T/C by setting is: (dose: 15.0 mg/kg/injection, schedule: Q01DX010 (ip), vehicle: saline) 87 % of control; (dose: 30.0 mg/kg/injection, schedule: Q01DX010 (ip), vehicle: saline) 93 % of control; (dose: 60.0 mg/kg/injection, schedule: Q01DX010 (ip), vehicle: saline) 93 % of control; (dose: 120.0 mg/kg/injection, schedule: Q01DX010 (ip), vehicle: saline) 87 % of control.
In the case of `Cn1c(N)nc2nc[nH]c2c1=S`, the T/C is 100 % of control under setting [25]; 100 % of control and 122 % of control under setting [21]; 88 % of control and 105 % of control under setting [24]; 88 % of control and 100 % of control (dose: 40.0 mg/kg/injection, schedule: Q01DX010 (ip), vehicle: saline); 111 % of control (dose: 80.0 mg/kg/injection, schedule: Q01DX010 (ip), vehicle: saline).
`C[n+]1c2ccccc2nc2c(N)cc(N)cc21`: the T/C runs as follows: under setting [18], 106 % of control; (dose: 18.0 mg/kg/injection, schedule: Q01DX010 (ip), vehicle: saline) 106 % of control; (dose: 27.0 mg/kg/injection, schedule: Q01DX010 (ip), vehicle: saline) 100 % of control.
For `N=[N+]=CC(=O)OCC(N)C(=O)O` (stereo not drawn), the T/C by setting is: (dose: 3.13 mg/kg/injection, schedule: Q01DX010 (ip), vehicle: saline) 122 % of control; under setting [15], 113 % of control; under setting [16], 100 % of control and 86 % of control.
For the molecule `CC(=O)Nc1ccc2nc3ccc(NC(C)=O)cc3[n+](-c3ccccc3)c2c1`, the T/C runs as follows: under setting [19], 117 % of control; under setting [17], 105 % of control; under setting [20], 117 % of control; (dose: 400.0 mg/kg/injection, schedule: Q01DX010 (ip), vehicle: saline) 105 % of control.
Take `CC[C@]1(O)C[C@H]2CN(CCc3c([nH]c4ccccc34)[C@@](C(=O)OC)(c3cc4c(cc3OC)N(C=O)[C@H]3[C@@](O)(C(=O)OC)[C@H](OC(C)=O)[C@]5(CC)C=CCN6CC[C@]43[C@@H]65)C2)C1`: the T/C (dose: 0.03 mg/kg/injection, schedule: Q01DX010 (ip), vehicle: saline) was 100 % of control and 115 % of control; the T/C (dose: 0.03 mg/kg/injection, schedule: Q01DX Z (ip), vehicle: saline) is 96 % of control and 106 % of control; the T/C (dose: 0.06 mg/kg/injection, schedule: Q01DX010 (ip), vehicle: saline) was 90 % of control and 112 % of control; the T/C (dose: 0.06 mg/kg/injection, schedule: Q01DX Z (ip), vehicle: saline) was 96 % of control and 106 % of control; the T/C (dose: 0.12 mg/kg/injection, schedule: Q01DX Z (ip), vehicle: saline) was 102 % of control and 106 % of control; the T/C (dose: 0.25 mg/kg/injection, schedule: Q01DX010 (ip), vehicle: saline) is 115 % of control. Moreover, the T/C by setting is: (dose: 0.25 mg/kg/injection, schedule: Q01DX Z (ip), vehicle: saline) 102 % of control and 120 % of control; under setting [9], 93 % of control; under setting [14], 112 % of control.

(Values after PubChem BioAssay AID236 (DTP/NCI, 2004).)
